The values that follow come from patent US20050107386A1, “Methods of treating diseases and disorders by targeting multiple kinases” (priority 2003, published 2005).

Each structure is given as a SMILES string.

In experiment [1] the test system is c-RAF(h). Nature of the experiment: c-RAF(h) kinase assay. Type of experiment: biochemical, human. Conditions: 3 μM; percent of control kinase activity. The protocol:
(§1) Six compounds (presumptive single agents) were tested against a panel of 50 kinases. The results are presented in Table 2; numbers for each kinase indicate the percent of control kinase activity in the presence of a 3μM concentration of the indicated agent.
(§2) Agents that target two or more different kinases are useful in the methods of the invention as described elsewhere herein. Such compounds may be identified, and their effect on certain kinases may be identified, using the assays briefly described below in Examples 4-83. Each of these assays was carried out as described in Davies et al., Biochem. J., 351:95-105 (2000). All assays were carried out at 10 μM ATP unless otherwise noted.
(§3) In a final reaction volume of 25 μl, c-RAF (h) (5-10 mU) is incubated with 25 mM Tris pH 7.5, 0.02 mM EGTA, 0.66 mg/ml myelin basic protein, 10 mM MgAcetate and [γ-^33P-ATP] (specific activity approx. 500 cpm/pmol, concentration as required). The reaction is initiated by the addition of Mg^2+ [γ-^33P-ATP]. After incubation for 40 minutes at room temperature, the reaction is stopped by the addition of 5 μl of a 3% phosphoric acid solution. 10 μl of the reaction is then spotted onto a P30 filtermat and washed three times for 5 minutes in 75 mM phosphoric acid and once in methanol prior to drying and scintillation counting.

In experiment [2] the target is Rsk1(h) (Homo sapiens, UniProt Q15418). Nature of the experiment: Rsk1(h) kinase assay. Type of experiment: biochemical. Conditions: for Inhibitory activity (% of control), Rsk1(h): 3 μM, percent of control kinase activity.
Chain of Rsk1(h) (Q15418 whole entry): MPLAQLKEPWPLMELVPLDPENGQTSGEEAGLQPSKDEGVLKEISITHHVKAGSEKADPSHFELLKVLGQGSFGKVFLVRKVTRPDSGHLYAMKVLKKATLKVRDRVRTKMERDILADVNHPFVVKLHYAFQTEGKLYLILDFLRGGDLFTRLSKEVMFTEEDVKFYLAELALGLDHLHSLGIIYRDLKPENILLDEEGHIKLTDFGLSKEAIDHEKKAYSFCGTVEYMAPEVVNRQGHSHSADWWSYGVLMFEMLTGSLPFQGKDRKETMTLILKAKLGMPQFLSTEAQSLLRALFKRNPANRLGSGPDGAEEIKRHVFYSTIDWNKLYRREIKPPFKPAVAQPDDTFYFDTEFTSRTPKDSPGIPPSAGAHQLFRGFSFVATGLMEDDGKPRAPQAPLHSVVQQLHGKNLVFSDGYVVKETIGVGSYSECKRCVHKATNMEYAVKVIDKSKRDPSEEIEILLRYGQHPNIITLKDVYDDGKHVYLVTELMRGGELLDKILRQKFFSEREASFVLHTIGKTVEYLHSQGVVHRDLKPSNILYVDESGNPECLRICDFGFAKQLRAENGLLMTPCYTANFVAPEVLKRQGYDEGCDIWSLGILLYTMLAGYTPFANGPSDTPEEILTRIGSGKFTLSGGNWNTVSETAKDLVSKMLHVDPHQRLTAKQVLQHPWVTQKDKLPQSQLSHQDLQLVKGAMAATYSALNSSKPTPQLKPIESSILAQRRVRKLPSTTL
The target of experiment [3] is Lyn(h) (Homo sapiens, UniProt P07948). Kind of experiment: Lyn(h) kinase assay. The note with it: 3 μM; percent of control kinase activity. In kind it is biochemical.
Chain of Lyn(h) (P07948 2-512 limits assumed): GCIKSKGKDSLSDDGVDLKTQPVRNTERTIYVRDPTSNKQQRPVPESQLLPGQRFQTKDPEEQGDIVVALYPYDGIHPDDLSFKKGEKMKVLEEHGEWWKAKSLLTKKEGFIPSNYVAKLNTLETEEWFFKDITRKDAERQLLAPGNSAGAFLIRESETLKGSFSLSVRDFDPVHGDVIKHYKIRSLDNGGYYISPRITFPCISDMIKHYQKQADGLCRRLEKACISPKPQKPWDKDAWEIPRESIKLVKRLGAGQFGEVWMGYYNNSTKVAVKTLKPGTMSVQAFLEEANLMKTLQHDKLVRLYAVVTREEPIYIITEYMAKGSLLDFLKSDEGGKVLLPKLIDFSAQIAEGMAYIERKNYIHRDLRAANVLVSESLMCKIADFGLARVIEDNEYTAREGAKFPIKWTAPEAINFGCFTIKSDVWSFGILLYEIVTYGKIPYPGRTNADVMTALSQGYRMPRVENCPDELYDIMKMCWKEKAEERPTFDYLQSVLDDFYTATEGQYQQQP
Experiment [4] deals with IGF-1R(h) (Homo sapiens, UniProt P08069). Kind of experiment: IGF-1R(h) kinase assay. Type of experiment: biochemical. Conditions: 3 μM; percent of control kinase activity. The protocol: as §1, §2
Chain of IGF-1R(h) (P08069 31-1367): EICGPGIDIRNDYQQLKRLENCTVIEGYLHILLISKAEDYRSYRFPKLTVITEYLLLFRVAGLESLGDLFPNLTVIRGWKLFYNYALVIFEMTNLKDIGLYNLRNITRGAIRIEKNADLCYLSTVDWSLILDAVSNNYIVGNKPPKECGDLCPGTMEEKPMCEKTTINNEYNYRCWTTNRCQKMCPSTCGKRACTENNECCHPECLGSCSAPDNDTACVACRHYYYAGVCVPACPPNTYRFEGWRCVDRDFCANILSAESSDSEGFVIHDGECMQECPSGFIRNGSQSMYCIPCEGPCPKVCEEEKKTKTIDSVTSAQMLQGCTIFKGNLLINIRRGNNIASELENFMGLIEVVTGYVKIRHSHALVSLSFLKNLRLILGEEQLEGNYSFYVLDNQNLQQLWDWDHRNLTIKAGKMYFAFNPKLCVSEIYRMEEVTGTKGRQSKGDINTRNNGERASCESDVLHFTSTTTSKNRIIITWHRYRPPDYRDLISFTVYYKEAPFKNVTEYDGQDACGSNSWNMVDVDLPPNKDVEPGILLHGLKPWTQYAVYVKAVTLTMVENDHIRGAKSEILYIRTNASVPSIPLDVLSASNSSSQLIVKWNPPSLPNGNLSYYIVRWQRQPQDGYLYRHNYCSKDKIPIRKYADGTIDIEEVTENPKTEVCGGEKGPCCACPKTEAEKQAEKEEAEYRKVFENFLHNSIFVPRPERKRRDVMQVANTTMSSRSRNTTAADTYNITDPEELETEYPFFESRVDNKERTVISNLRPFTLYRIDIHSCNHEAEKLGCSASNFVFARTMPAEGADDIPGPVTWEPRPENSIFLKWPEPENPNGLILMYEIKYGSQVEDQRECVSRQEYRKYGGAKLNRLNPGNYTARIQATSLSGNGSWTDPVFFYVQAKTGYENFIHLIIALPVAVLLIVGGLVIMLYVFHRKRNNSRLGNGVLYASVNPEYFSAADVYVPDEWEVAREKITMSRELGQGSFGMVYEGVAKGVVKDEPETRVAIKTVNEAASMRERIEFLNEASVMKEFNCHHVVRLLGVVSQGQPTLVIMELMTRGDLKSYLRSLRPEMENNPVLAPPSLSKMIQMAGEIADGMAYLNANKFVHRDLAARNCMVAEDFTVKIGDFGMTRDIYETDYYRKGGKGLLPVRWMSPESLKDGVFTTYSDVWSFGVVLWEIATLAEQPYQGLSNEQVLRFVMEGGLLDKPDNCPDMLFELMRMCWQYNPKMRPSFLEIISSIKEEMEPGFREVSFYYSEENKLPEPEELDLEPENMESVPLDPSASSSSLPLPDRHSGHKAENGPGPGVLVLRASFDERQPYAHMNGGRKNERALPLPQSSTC
as §3, with “μl, IGF-IR” for “μl, c-RAF”, “with 50” for “with 25”, “7.5, 0.1” for “7.5, 0.02”, “EGTA, 0.1 mM NaVanadate, 0.1% β-mercaptoethanol, 250 μM […] (SEQ ID NO:16), 10 mM MnCl2,” for “EGTA, 0.66 mg/ml myelin basic protein,”

Experiment [5] concerns the target Lck(h) (Homo sapiens, UniProt P06239). Nature of the experiment: Lck(h) kinase assay. In kind it is biochemical. The note with it: 3 μM; percent of control kinase activity. The protocol:
as §1, §2
as §3, with “μl, Lck(h)” for “μl, c-RAF (h)”, “with 50” for “with 25”, “7.5, 0.1” for “7.5, 0.02”, “EGTA, 0.1 mM NaVanadate, 250 μM […] (Cdc2 peptide; SEQ ID NO:7),” for “EGTA, 0.66 mg/ml myelin basic protein,”

The target of experiment [6] is T1, PDK1(h) (Homo sapiens, UniProt O15530).
T1 sequence (O15530 1-556): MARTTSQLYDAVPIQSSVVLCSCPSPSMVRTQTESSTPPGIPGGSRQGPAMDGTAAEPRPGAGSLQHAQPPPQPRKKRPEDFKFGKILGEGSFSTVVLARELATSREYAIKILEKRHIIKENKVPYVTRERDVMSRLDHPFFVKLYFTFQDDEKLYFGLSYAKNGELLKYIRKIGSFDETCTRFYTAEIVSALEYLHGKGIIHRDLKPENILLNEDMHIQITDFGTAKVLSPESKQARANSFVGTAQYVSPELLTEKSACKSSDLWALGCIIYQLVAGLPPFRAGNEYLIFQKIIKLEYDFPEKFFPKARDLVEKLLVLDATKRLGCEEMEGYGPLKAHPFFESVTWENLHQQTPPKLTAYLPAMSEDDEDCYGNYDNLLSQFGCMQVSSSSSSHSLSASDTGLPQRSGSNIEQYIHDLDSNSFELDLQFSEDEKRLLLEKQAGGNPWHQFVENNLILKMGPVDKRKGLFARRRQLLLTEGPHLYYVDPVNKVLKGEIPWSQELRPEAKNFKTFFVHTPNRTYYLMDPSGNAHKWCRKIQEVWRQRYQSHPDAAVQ
Kind of experiment: PDK1(h) kinase assay. In kind it is biochemical. The note with it: 3 μM; percent of control kinase activity. The protocol: as §1, §2
as §3, with “μl, PDK1” for “μl, c-RAF”, “with 50” for “with 25”, “7.5, 100 μM […] (SEQ ID NO:13) (PDKtide), 0.1% β-mercaptoethanol,” for “7.5, 0.02 mM EGTA, 0.66 mg/ml myelin basic protein,”

The target of experiment [7] is CDK1/cyclinB(h) (Homo sapiens, UniProt P06493). Kind of experiment: CDK1/cyclinB(h) kinase assay. Type of experiment: biochemical. Conditions: for Inhibitory activity (% of control), CDK1/cyclinB(h): 3 μM, percent of control kinase activity. The protocol:
as §1, §2
In a final reaction volume of 25 μl, CDK1/cyclinB (h) (5-10 mU) is incubated with 8 mM MOPS pH 7.0, 0.2 mM EDTA, 0.1 mg/ml histone H1, 10 mM MgAcetate and [γ-^33p-ATP] (specific activity approx. 500 cpm/pmol, concentration as required). The reaction is initiated by the addition of Mg^2+ [γ-33 P-ATP]. After incubation for 40 minutes at room temperature, the reaction is stopped by the addition of 5 μl of a 3% phosphoric acid solution. 10 μl of the reaction is then spotted onto a P30 filtermat and washed three times for 5 minutes in 75 mM phosphoric acid and once in methanol prior to drying and scintillation counting.

Chain of Lck(h) (P06239 whole entry): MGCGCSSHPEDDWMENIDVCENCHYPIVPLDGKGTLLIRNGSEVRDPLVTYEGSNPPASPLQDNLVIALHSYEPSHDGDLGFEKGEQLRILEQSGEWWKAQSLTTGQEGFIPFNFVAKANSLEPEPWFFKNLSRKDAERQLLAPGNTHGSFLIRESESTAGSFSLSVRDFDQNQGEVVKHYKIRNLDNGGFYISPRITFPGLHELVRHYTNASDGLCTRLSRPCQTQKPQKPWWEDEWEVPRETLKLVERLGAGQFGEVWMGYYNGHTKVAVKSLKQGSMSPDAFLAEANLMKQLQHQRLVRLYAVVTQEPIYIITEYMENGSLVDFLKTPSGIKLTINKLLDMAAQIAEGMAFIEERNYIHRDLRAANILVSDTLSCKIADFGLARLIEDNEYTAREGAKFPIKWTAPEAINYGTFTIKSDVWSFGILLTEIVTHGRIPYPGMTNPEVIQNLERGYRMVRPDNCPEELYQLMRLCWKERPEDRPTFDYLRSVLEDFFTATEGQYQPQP
Chain of CDK1/cyclinB(h) (P06493 whole entry): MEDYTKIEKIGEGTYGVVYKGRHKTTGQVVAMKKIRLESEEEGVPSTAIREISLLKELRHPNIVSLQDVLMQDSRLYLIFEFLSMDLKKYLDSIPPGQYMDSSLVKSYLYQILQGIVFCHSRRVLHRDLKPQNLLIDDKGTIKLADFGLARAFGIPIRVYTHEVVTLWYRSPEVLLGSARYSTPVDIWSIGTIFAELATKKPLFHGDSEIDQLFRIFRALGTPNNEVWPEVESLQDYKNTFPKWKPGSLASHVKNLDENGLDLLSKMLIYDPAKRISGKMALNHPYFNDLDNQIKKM
Chain of CDK1/cyclinB(h) (P14635 whole entry partner): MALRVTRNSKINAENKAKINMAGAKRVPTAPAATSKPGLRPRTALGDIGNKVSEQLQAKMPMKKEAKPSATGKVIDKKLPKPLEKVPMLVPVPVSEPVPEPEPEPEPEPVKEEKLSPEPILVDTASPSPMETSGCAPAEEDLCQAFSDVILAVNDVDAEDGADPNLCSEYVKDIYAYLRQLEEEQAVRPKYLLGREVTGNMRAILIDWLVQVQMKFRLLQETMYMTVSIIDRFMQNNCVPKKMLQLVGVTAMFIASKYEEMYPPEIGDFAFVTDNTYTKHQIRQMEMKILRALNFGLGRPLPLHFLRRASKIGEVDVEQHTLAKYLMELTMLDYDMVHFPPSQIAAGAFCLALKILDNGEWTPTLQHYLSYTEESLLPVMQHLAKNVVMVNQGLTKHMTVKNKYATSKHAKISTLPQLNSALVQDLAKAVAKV

On to `COc1ccc2cc(-c3n[nH]c4ccc(-c5n[nH]c(CN6CCOCC6)n5)cc34)ccc2c1` [CC001, 3-(6-Methoxynaphthalen-2-yl)-5-(5-Morpholin-4-Ylmethyl-1H-[1,2,4]Triazol-3-yl)-1H-Indazole], for which, in experiment [1], the “Inhibitory activity (% of control), c-RAF(h)” value is on record as 99 % of control. For the same compound, in experiment [2], the “Inhibitory activity (% of control), Rsk1(h)” value is listed as 4 % of control. For the same compound, the “Inhibitory activity (% of control), Lyn(h)” value in experiment [3] is given as 5 % of control. Further, the “Inhibitory activity (% of control), IGF-1R(h)” value in experiment [4] is 92 % of control. Further, the “Inhibitory activity (% of control), Lck(h)” value in experiment [5] was 27 % of control. Further, in experiment [6], the “Inhibitory activity (% of control), PDK1(h)” value is on record as 59 % of control. The “Inhibitory activity (% of control), CDK1/cyclinB(h)” value in experiment [7] is 2 % of control.

`CC(C)Cc1nc(-c2ccc3[nH]nc(-c4ccc5cc(OCCN6CCCC6)ccc5c4)c3c2)n[nH]1` [CC002, 5-(5-Isobutyl-1H-[1,2,4]Triazol-3-yl)-3-[6-(2-Pyrrolidin-1-yl-Ethoxy)-Naphthalen-2-yl]-1H-Indazole]: the “Inhibitory activity (% of control), c-RAF(h)” value in experiment [1] was 96 % of control. Besides, the “Inhibitory activity (% of control), Rsk1(h)” value in experiment [2] was 3 % of control. Moreover, the “Inhibitory activity (% of control), Lyn(h)” value in experiment [3] is on record as 2 % of control. For the same compound, the “Inhibitory activity (% of control), IGF-1R(h)” value in experiment [4] was 55 % of control. In experiment [5], the “Inhibitory activity (% of control), Lck(h)” value is reported as 5 % of control. Moreover, the “Inhibitory activity (% of control), PDK1(h)” value in experiment [6] is 58 % of control. In addition, the “Inhibitory activity (% of control), CDK1/cyclinB(h)” value in experiment [7] is 2 % of control.

Turning to `CC(C)(C)Cc1nc(-c2ccc3[nH]nc(-c4ccc5cc(OCc6ccccn6)ccc5c4)c3c2)n[nH]1` [CC004, 5-[5-(2,2-Dimethyl-propyl)-1H-[1,2,4]triazol-3-yl]-3-[6-(pyridine-2-ylmethoxy)-naphthalen-2-yl]-1H-indazole], the “Inhibitory activity (% of control), c-RAF(h)” value in experiment [1] is 85 % of control. Moreover, the “Inhibitory activity (% of control), Rsk1(h)” value in experiment [2] is 29 % of control. Further, in experiment [2] (summary of Table 2), the “inhibitory activity against Rsk1, in words” value is listed as “good inhibitory activity”. The “Inhibitory activity (% of control), Lyn(h)” value in experiment [3] was 62 % of control. Also, in experiment [4], the “Inhibitory activity (% of control), IGF-1R(h)” value is on record as 96 % of control. For the same compound, the “Inhibitory activity (% of control), Lck(h)” value in experiment [5] is 57 % of control. Besides, the “Inhibitory activity (% of control), PDK1(h)” value in experiment [6] was 70 % of control. In experiment [7], the “Inhibitory activity (% of control), CDK1/cyclinB(h)” value is given as 1 % of control. Further, the “inhibitory activity against CDK1, in words” value in experiment [7] (summary of Table 2) is listed as “good inhibitory activity”.

With `CCN1CCC[C@H]1COc1ccc2cc(-c3n[nH]c4ccc(-c5nc(CC(C)(C)C)n[nH]5)cc34)ccc2c1` [CC005, 2-[((2s)-1-ethylpyrrolidin-2-yl)methoxy]-6-{5-[3-(2,2-Dimethylpropyl)(1H-1,2,4,-triazol-5-yl)](1H-indazol-3-yl)}naphthalene], in experiment [1], the “Inhibitory activity (% of control), c-RAF(h)” value is listed as 100 % of control. The “Inhibitory activity (% of control), Rsk1(h)” value in experiment [2] is given as 2 % of control. Also, the “Inhibitory activity (% of control), Lyn(h)” value in experiment [3] is given as 2 % of control. Moreover, the “Inhibitory activity (% of control), IGF-1R(h)” value in experiment [4] is 58 % of control. For the same compound, in experiment [5], the “Inhibitory activity (% of control), Lck(h)” value is reported as 6 % of control. Besides, the “Inhibitory activity (% of control), PDK1(h)” value in experiment [6] was 59 % of control. Further, the “Inhibitory activity (% of control), CDK1/cyclinB(h)” value in experiment [7] is 1 % of control.

Regarding `Fc1ccc(-c2n[nH]c3ccc(-c4n[nH]c(C5CCCC5)n4)cc23)cc1` [CC006, 5-(5-Cyclopentyl-1H-[1,2,4]triazol-3-yl)-3-(4-fluoro-phenyl)-1H-indazole, reference compound], the “Inhibitory activity (% of control), c-RAF(h)” value in experiment [1] is on record as 99 % of control. Further, the “Inhibitory activity (% of control), Rsk1(h)” value in experiment [2] was 43 % of control. Further, the “Inhibitory activity (% of control), Lyn(h)” value in experiment [3] is 23 % of control. Further, the “Inhibitory activity (% of control), IGF-1R(h)” value in experiment [4] is given as 65 % of control. In addition, the “Inhibitory activity (% of control), Lck(h)” value in experiment [5] is 43 % of control. The “Inhibitory activity (% of control), PDK1(h)” value in experiment [6] was 43 % of control. Moreover, in experiment [7], the “Inhibitory activity (% of control), CDK1/cyclinB(h)” value is on record as 3 % of control.

As for `O=C(NC1CCCC1)c1cccc(-c2n[nH]c3ccc(-c4nc[nH]n4)cc23)c1` [CC007, 3-(5-(1H-1,2,4-triazol-3-yl)(1H-indazol-3-yl))phenyl-N-cyclopentylcarboxamide, reference compound], the “Inhibitory activity (% of control), c-RAF(h)” value in experiment [1] is given as 92 % of control. Moreover, the “Inhibitory activity (% of control), Rsk1(h)” value in experiment [2] is 51 % of control. Further, in experiment [3], the “Inhibitory activity (% of control), Lyn(h)” value is reported as 61 % of control. Moreover, the “Inhibitory activity (% of control), IGF-1R(h)” value in experiment [4] is 88 % of control. Also, in experiment [5], the “Inhibitory activity (% of control), Lck(h)” value is listed as 56 % of control. The “Inhibitory activity (% of control), PDK1(h)” value in experiment [6] is reported as 97 % of control. Further, the “Inhibitory activity (% of control), CDK1/cyclinB(h)” value in experiment [7] is given as 26 % of control.
